# Measurements as given in patent publication US20060069132A1, “Azolecarboxamide herbicides” (priority 2004, published 2006).
# Read-outs that look alike come from different tables or passages of the source.
# Key:
# [1] = tested on: common (oilseed) sunflower; assay: Test C pre-/postemergence herbicide test; assay type: in vivo, Helianthus annuus; details: Helianthus annuus, pre-emergence, read-out: Plant response rating, Sunflower
# Procedure, shortened: (§1)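 Emerged plants at the 1- to 4-leaf stage (2–18 cm), or freshly planted seeds, received test chemicals in a non-phytotoxic solvent mixture with surfactant. Response was visually scored against controls after 12 to 14 days in the greenhouse, on a 0 (no effect) to 100 (complete control) scale.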
# bermudagrass = assay: Test C pre-/postemergence herbicide test; assay type: in vivo, Cynodon dactylon; details: for pest or weed control at 250 g/ha: 250 g ai/ha; for pest or weed control at 125 g/ha: 125 g ai/ha
# Procedure, shortened: as §1
# morningglory = assay: Test A pre-/postemergence herbicide test; assay type: in vivo, Ipomoea spp.; details: Ipomoea, 240 h; for pest or weed control at 500 g/ha: 500 g ai/ha; for pest or weed control at 2000 g/ha: 2000 g ai/ha
# Procedure, shortened: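 Both application timings were run together: directed soil spray over freshly planted seeds in sandy loam, and runoff spray onto 2–10 cm seedlings. Evaluation after ~10 days in greenhouse used a 0–100 visual scale versus untreated controls.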
# yellow nutsedge = assay: Test C pre-/postemergence herbicide test; assay type: in vivo, Cyperus esculentus; details: for pest or weed control at 125 g/ha: 125 g ai/ha
# Procedure, shortened: as §1
# barnyardgrass = assay: Test C flooded paddy test; assay type: in vivo, Echinochloa crus-galli; details: Echinochloa crus-galli
# Procedure, shortened: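 Injury scored visually against controls on a 0 (no effect) to 100 (complete control) scale, 12 to 14 days after treatment in greenhouse. Flooded paddy plants treated at 2-leaf stage; postemergence plants at 1- to 4-leaf stage, 2 to 18 cm tall.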
# velvetleaf = assay: Test C pre-/postemergence herbicide test; assay type: in vivo, Abutilon theophrasti; details: Abutilon theophrasti, read-out: Plant response rating, Velvetleaf; for pest or weed control at 125 g/ha: 125 g ai/ha
# Procedure, shortened: as §1
# giant foxtail = assay: Test C pre-/postemergence herbicide test; assay type: in vivo, Setaria faberi; details: for pest or weed control at 250 g/ha: 250 g ai/ha; for pest or weed control at 125 g/ha: 125 g ai/ha
# Procedure, shortened: as §1
# woolly cupgrass = assay: Test C pre-/postemergence herbicide test; assay type: in vivo, Eriochloa villosa; details: for pest or weed control at 250 g/ha: 250 g ai/ha; for pest or weed control at 125 g/ha: 125 g ai/ha
# Procedure, shortened: as §1
# [2] = post-emergence, Postemergence, 0 to 100 scale, 0 no effect, 100 complete control, read-out: Plant response rating, Morningglory
compound,measurement,setting,value
"CCOC(=O)c1cccc(NC(=O)c2cc(C(C)(C)C)nn2CC)c1 [Compound 80, ethyl 3-[[[3-(1,1-dimethylethyl)-1-ethyl-1H-pyrazol-5-yl]carbonyl]-amino]benzoate]",pest or weed control at 31 g/ha,"[1]; 31 g ai/ha, preemergence, scale 0 to 100",0%
same,pest or weed control at 125 g/ha,"[1]; 125 g ai/ha, scale 0 (no effect) to 100 (complete control), visual, 12 to 14 days",0%
same,"Plant response rating (0 = no effect, 100 = complete control), Bermudagrass","bermudagrass; 62 g ai/ha, preemergence",10
same,pest or weed control at 250 g/ha,"bermudagrass; Cynodon dactylon, post-emergence, 312 h, Postemergence, scale 0 to 100, read-out: Bermudagrass plant response rating",100%
same,pest or weed control at 125 g/ha,"bermudagrass; Cynodon dactylon, post-emergence, 312 h, postemergence, scale 0 to 100, read-out: Plant response rating, Bermudagrass",100%
same,pest or weed control at 31 g/ha,"bermudagrass; Cynodon dactylon, pre-emergence, 312 h, 31 g ai/ha, preemergence, scale 0 to 100, read-out: Plant response rating, Bermudagrass",0%
same,pest or weed control at 125 g/ha,"bermudagrass; Cynodon dactylon, pre-emergence, 312 h, scale 0 (no effect) to 100 (complete control), visual, 12 to 14 days, read-out: Plant response rating, Bermudagrass",10%
same,pest or weed control at 250 g/ha,"bermudagrass; Cynodon dactylon, pre-emergence, 312 h, scale 0 to 100 (0 no effect, 100 complete control), visual, 12 to 14 days, read-out: Plant response rating, Bermudagrass",10%
same,pest or weed control at 500 g/ha,morningglory; [2],40%
same,pest or weed control at 2000 g/ha,morningglory; [2],50%
same,pest or weed control at 500 g/ha,"morningglory; pre-emergence, Preemergence, visual rating, 0 to 100 scale (0 no effect, 100 complete control), read-out: Morningglory plant response rating",15%
same,pest or weed control at 2000 g/ha,"morningglory; pre-emergence, Preemergence, 0 to 100 scale, 0 no effect, 100 complete control, read-out: Morningglory plant response rating",30%
same,"Plant response rating (0 = no effect, 100 = complete control), Nutsedge, Yellow","yellow nutsedge; 62 g ai/ha, preemergence",0
same,pest or weed control at 250 g/ha,"yellow nutsedge; Cyperus, post-emergence, Postemergence, 250 g ai/ha, scale 0 to 100, 0 no effect, 100 complete control, read-out: Plant response rating, Nutsedge, Yellow",40%
same,pest or weed control at 125 g/ha,"yellow nutsedge; Cyperus, post-emergence, postemergence, scale 0 to 100, read-out: Plant response rating, Nutsedge, Yellow",40%
same,pest or weed control at 62 g/ha,"yellow nutsedge; Cyperus, post-emergence, postemergence, 62 g ai/ha, scale 0 to 100, read-out: Plant response rating, Nutsedge, Yellow",40%
same,pest or weed control at 31 g/ha,"yellow nutsedge; Cyperus, pre-emergence, 31 g ai/ha, preemergence, scale 0 to 100, read-out: Plant response rating, Nutsedge, Yellow",0%
same,pest or weed control at 125 g/ha,"yellow nutsedge; Cyperus, pre-emergence, scale 0 (no effect) to 100 (complete control), visual, 12 to 14 days, read-out: Plant response rating, Nutsedge, Yellow",0%
same,pest or weed control at 62 g/ha,"barnyardgrass; 62 g ai/ha, scale 0 to 100 (0 no effect, 100 complete control), read-out: Barnyardgrass plant response rating",0%
same,pest or weed control at 125 g/ha,"barnyardgrass; 125 g ai/ha, scale of 0 to 100, 0 is no effect, 100 is complete control, read-out: Barnyardgrass plant response rating",20%
same,pest or weed control at 250 g/ha,"barnyardgrass; 250 g ai/ha, scale of 0 to 100, 0 is no effect, 100 is complete control, read-out: Barnyardgrass plant response rating",40%
same,pest or weed control at 500 g/ha,"barnyardgrass; 500 g ai/ha, visual rating after 12 to 14 days, scale 0 to 100 (0 no effect, 100 complete control), read-out: Plant response rating, Barnyardgrass",60%
same,pest or weed control at 250 g/ha,"velvetleaf; post-emergence, Postemergence, 250 g ai/ha, scale 0 to 100, 0 no effect, 100 complete control",100%
same,pest or weed control at 125 g/ha,"velvetleaf; post-emergence, postemergence, scale 0 to 100",100%
same,pest or weed control at 62 g/ha,"velvetleaf; post-emergence, postemergence, 62 g ai/ha, scale 0 to 100",100%
same,pest or weed control at 31 g/ha,"velvetleaf; pre-emergence, 31 g ai/ha, preemergence, scale 0 to 100",20%
same,pest or weed control at 125 g/ha,"velvetleaf; pre-emergence, scale 0 (no effect) to 100 (complete control), visual, 12 to 14 days",100%
same,"Plant response rating (0 = no effect, 100 = complete control), Foxtail, Giant","giant foxtail; 62 g ai/ha, preemergence",10
same,pest or weed control at 250 g/ha,"giant foxtail; Setaria faberi, post-emergence, 312 h, Postemergence, scale 0 to 100, 0 no effect, 100 complete control, read-out: Plant response rating, Foxtail, Giant",80%
same,pest or weed control at 125 g/ha,"giant foxtail; Setaria faberi, post-emergence, 312 h, postemergence, scale 0 to 100, read-out: Plant response rating, Foxtail, Giant",80%
same,pest or weed control at 62 g/ha,"giant foxtail; Setaria faberi, post-emergence, 312 h, postemergence, 62 g ai/ha, scale 0 to 100, read-out: Plant response rating, Foxtail, Giant",70%
same,pest or weed control at 31 g/ha,"giant foxtail; Setaria faberi, pre-emergence, 312 h, 31 g ai/ha, preemergence, scale 0 to 100, read-out: Plant response rating, Foxtail, Giant",10%
same,pest or weed control at 125 g/ha,"giant foxtail; Setaria faberi, pre-emergence, 312 h, scale 0 (no effect) to 100 (complete control), visual, 12 to 14 days, read-out: Plant response rating, Foxtail, Giant",40%
same,pest or weed control at 250 g/ha,"giant foxtail; Setaria faberi, pre-emergence, 312 h, scale 0 to 100 (0 no effect, 100 complete control), visual, 12 to 14 days, read-out: Plant response rating, Foxtail, Giant",50%
same,"Plant response rating (0 = no effect, 100 = complete control), Cupgrass, Woolly","woolly cupgrass; 62 g ai/ha, preemergence",0
same,pest or weed control at 250 g/ha,"woolly cupgrass; Eriochloa villosa, post-emergence, 312 h, Postemergence, scale 0 to 100, 0 no effect, 100 complete control, read-out: Plant response rating, Cupgrass, Woolly",90%
same,pest or weed control at 125 g/ha,"woolly cupgrass; Eriochloa villosa, post-emergence, 312 h, postemergence, scale 0 to 100, read-out: Plant response rating, Cupgrass, Woolly",90%
same,pest or weed control at 62 g/ha,"woolly cupgrass; Eriochloa villosa, post-emergence, 312 h, postemergence, 62 g ai/ha, scale 0 to 100, read-out: Plant response rating, Cupgrass, Woolly",80%
same,pest or weed control at 31 g/ha,"woolly cupgrass; Eriochloa villosa, pre-emergence, 312 h, 31 g ai/ha, preemergence, scale 0 to 100, read-out: Plant response rating, Cupgrass, Woolly",0%
same,pest or weed control at 125 g/ha,"woolly cupgrass; Eriochloa villosa, pre-emergence, 312 h, scale 0 (no effect) to 100 (complete control), visual, 12 to 14 days, read-out: Plant response rating, Cupgrass, Woolly",10%
same,pest or weed control at 250 g/ha,"woolly cupgrass; Eriochloa villosa, pre-emergence, 312 h, scale 0 to 100 (0 no effect, 100 complete control), visual, 12 to 14 days, read-out: Plant response rating, Cupgrass, Woolly",10%
